In ChEMBL document CHEMBL1201862, “PubChem BioAssay data set” (2004):
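The compound was tested at five concentrations on cells cultured in 96-well plates, with a 48-hour exposure period. Here, GI50 denotes the concentration required for 50% inhibition of growth.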 The source made the active and inactive calls. Rule as the data show it: active = GI50 up to about 1.1 µM and inactive = higher.

Tests used:
Assay in all cases: growth of human tumour cells (NCI), 48 h
ACHN = system: ACHN
HCT-116 = system: HCT-116
HCT-15 = system: HCT-15
HOP-62 = system: HOP-62
HT-29 = system: HT-29
M14 = system: M14
Malme-3M = system: Malme-3M
NCI-H226 = system: NCI-H226
NCI-H23 = system: NCI-H23
NCI-H522 = system: NCI-H522
PC-3 = system: PC-3
RXF 393 = system: RXF 393
SF-295 = system: SF-295
SN12C = system: SN12C
TK-10 = system: TK-10
U-251 = system: U-251
UACC-257 = system: UACC-257
UACC-62 = system: UACC-62
UO-31 = system: UO-31
DU-145 = system: DU-145

Row | Structure (SMILES) | GI50 (ACHN) | GI50 (HCT-116) | GI50 (HCT-15) [µM] | GI50 (HOP-62) | GI50 (HT-29) | GI50 (M14) | GI50 (Malme-3M) | GI50 (NCI-H226) | GI50 (NCI-H23) | GI50 (NCI-H522) | GI50 (PC-3) | GI50 (RXF 393) | GI50 (SF-295) | GI50 (SN12C) | GI50 (TK-10) | GI50 (U-251) | GI50 (UACC-257) | GI50 (UACC-62) | GI50 (UO-31) | GI50 (DU-145)
1 | Cc1ccc(/C=N/Nc2ncccn2)s1 | > 100 µM (inactive) | > 100 µM (inactive) | > 100 | > 100 µM (inactive) | > 100 µM (inactive) | > 100 µM (inactive) | > 100 µM (inactive) | > 100 µM (inactive) | > 100 µM (inactive) | > 100 µM (inactive) | > 100 µM (inactive) | > 100 µM (inactive) | > 100 µM (inactive) | > 100 µM (inactive) | > 100 µM (inactive) | > 100 µM (inactive) | > 100 µM (inactive) | > 100 µM (inactive) | > 100 µM (inactive) | –
2 | CN(C)c1nc(NN)c2c(-c3ccccc3)c(-c3ccccc3)oc2n1 | > 100 µM (inactive) | > 100 µM (inactive) | > 100 | – | 98.4 µM (inactive) | > 100 µM (inactive) | – | > 100 µM (inactive) | > 100 µM (inactive) | 68.2 µM (inactive) | – | > 100 µM (inactive) | > 100 µM (inactive) | > 100 µM (inactive) | > 100 µM (inactive) | > 100 µM (inactive) | > 100 µM (inactive) | 44.8 µM (inactive) | > 100 µM (inactive) | > 100 µM (inactive)
3 | C=C1CC(C)(COc2ccc3c(C)c(Cl)c(=O)oc3c2)OC1=O (stereo not drawn) | 2.82 µM (inactive) | 0.408 µM (active) | 2.03 | 10.3 µM (inactive) | 0.984 µM (active) | 1.26 µM (inactive) | 1.9 µM (inactive) | 2.83 µM (inactive) | 1.21 µM (inactive) | 0.632 µM (active) | 2.52 µM (inactive) | – | 6.12 µM (inactive) | 5.07 µM (inactive) | 0.942 µM (active) | 7.82 µM (inactive) | 1.15 µM (inactive) | 1.39 µM (inactive) | 3.34 µM (inactive) | 2.4 µM (inactive)
4 | COc1ccc(OC)c2sc(N3C(=O)/C(=C/Cc4ccco4)N=C3c3ccccc3)nc12 | 26.7 µM (inactive) | 27.3 µM (inactive) | 42.7 | 43 µM (inactive) | 44 µM (inactive) | 37.6 µM (inactive) | – | – | – | – | 24.5 µM (inactive) | – | 73.1 µM (inactive) | 33.3 µM (inactive) | > 100 µM (inactive) | 22.5 µM (inactive) | > 100 µM (inactive) | 21.8 µM (inactive) | 30.9 µM (inactive) | 32.4 µM (inactive)
5 | COc1cc2c(c(OC)c1OC)-c1ccc(SC)c(=O)cc1[C@@H](NCc1ccccc1[N+](=O)[O-])CC2 | 0.0439 µM (active) | 0.00644 µM (active) | 0.0113 | 0.0174 µM (active) | 0.00391 µM (active) | 0.00546 µM (active) | 0.00817 µM (active) | 0.0234 µM (active) | 0.00429 µM (active) | 0.011 µM (active) | – | 0.00286 µM (active) | 0.00826 µM (active) | 0.0209 µM (active) | 0.061 µM (active) | 0.0154 µM (active) | 0.00561 µM (active) | 0.00326 µM (active) | 0.01 µM (active) | –
6 | C=C(C)C(=O)O[C@H]1C/C(CO)=C/CCC(=C)C(OC(C)=O)[C@H]2OC(=O)C(=C)[C@H]12 (stereo partly drawn) | 8.45 µM (inactive) | 3.78 µM (inactive) | 2.3 | 26.2 µM (inactive) | 5.86 µM (inactive) | 3.49 µM (inactive) | 3.96 µM (inactive) | 40.8 µM (inactive) | 10.3 µM (inactive) | 3.45 µM (inactive) | 14.6 µM (inactive) | – | 23.7 µM (inactive) | 13.4 µM (inactive) | > 10 µM (inactive) | 17.8 µM (inactive) | 10 µM (inactive) | 10.2 µM (inactive) | 5.19 µM (inactive) | 17 µM (inactive)
7 | O=[N+]([O-])c1cc(C(F)(F)F)cc([N+](=O)[O-])c1CCl | 14.5 µM (inactive) | 0.897 µM (active) | 1.58 | 16.1 µM (inactive) | 2.14 µM (inactive) | 0.53 µM (active) | 3.23 µM (inactive) | 1.57 µM (inactive) | 1.69 µM (inactive) | 0.328 µM (active) | – | 1.73 µM (inactive) | 5.78 µM (inactive) | 1.55 µM (inactive) | 8.53 µM (inactive) | 3.61 µM (inactive) | 3.72 µM (inactive) | 0.336 µM (active) | 7.87 µM (inactive) | –
8 | O=C(Nc1cc(Cl)c(Cl)cc1Cl)C(=O)C1C(=O)NC(=S)NC1=O | > 100 µM (inactive) | > 100 µM (inactive) | > 100 | > 100 µM (inactive) | > 100 µM (inactive) | > 100 µM (inactive) | > 100 µM (inactive) | > 100 µM (inactive) | > 100 µM (inactive) | > 100 µM (inactive) | – | > 100 µM (inactive) | > 100 µM (inactive) | > 100 µM (inactive) | > 100 µM (inactive) | > 100 µM (inactive) | > 100 µM (inactive) | > 100 µM (inactive) | > 100 µM (inactive) | –
